Data as given in patent US10940139B2, “Compounds that interact with the Ras superfamily for the treatment of cancers, inflammatory diseases, rasopathies, and fibrotic disease” (Shy Therapeutics LLC, priority 2017, dated 2021).
Read-outs that look alike come from different tables or passages of the source.

How the values were obtained:
[1] = test system: MIA-PACA2 pancreatic cancer cell lines; experiment: Cell proliferation assay, alternate assay conditions (DAPI fluorescence); format: cell-based; details: Homo sapiens, MIA PaCa-2; * = tested at 10 μM, alternate conditions, MIA-PACA2
Protocol: Cell lines: Tumor-derived pancreatic cancer cell lines MIA-PACA2 were purchased from ATCC and grown in complete DMEM-High Glucose medium supplemented with penicillin (100 U/mL), streptomycin (100 μg/mL), and 10% heat-inactivated FBS at 37° C. in a humidified incubator with 5% CO2.
Method: Cells are plated at 4000 cells/well density in 96-wells plate. The next day tested small molecules are added to the cells in the final concentration of 10 μM in the presence of 0.3% DMSO and 10% FBS. After small molecules addition, cells are incubated for 4 days at 37° C. in a humidified incubator with 5% CO2. For IC50 value determination, serial dilutions of compounds were added to cells under the same conditions.
Assay: At the end of the incubation period, cell cultures are fixed with a 50-50 mixture (v/v) acetone-methanol for 10 minutes at −20° C., followed by rehydration in PBS for 10 minutes at room temperature. After rehydration, cells are stained with DAPI (1 μg/ml) in PBS for 10 minutes at room temperature, followed by 3 washes with PBS. After staining, DAPI fluorescence is recorded (358 nm excitation/461 nm emission) with the 96-well plate reader Molecular Devices Spectramax M3; degree of small mole-cule-dependent proliferation inhibition is calculated from raw data assuming No Serum cells value as 100%.

[2] = biological target: KRas G12D mutant protein (Homo sapiens (Human), UniProt P01116, G12D); experiment: Ras GTP binding domain inhibition assay (labeled GTP); details: 20 μM compound
Sequence of KRas G12D mutant protein (P01116-2 other isoform, or with tags, fused parts or gaps G12D): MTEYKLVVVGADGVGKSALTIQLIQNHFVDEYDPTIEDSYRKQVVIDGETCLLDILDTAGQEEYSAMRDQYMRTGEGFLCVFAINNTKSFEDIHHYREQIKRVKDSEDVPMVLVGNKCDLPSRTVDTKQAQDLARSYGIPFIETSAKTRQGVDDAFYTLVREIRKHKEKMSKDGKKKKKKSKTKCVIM

[3] = biological target: KRas Q61H mutant (Homo sapiens (Human), UniProt P01116, Q61H); experiment: as above; details: 20 μM compound
Sequence of KRas Q61H mutant (P01116-2 other isoform, or with tags, fused parts or gaps Q61H): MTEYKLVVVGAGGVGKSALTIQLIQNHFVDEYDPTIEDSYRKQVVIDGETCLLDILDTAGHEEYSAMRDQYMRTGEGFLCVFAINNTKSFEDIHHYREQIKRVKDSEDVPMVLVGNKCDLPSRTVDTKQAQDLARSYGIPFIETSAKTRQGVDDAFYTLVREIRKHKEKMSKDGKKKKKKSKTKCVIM
In short: (§1)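 Ni-plate capture of His-KRas (3-10 μg/ml, o/n, 4° C); Tris pH 7.5/MgCl2/DTT buffer, 1% DMSO. Cpd 20 μM or titration, 3 h RT. Cy3/Cy5-GTP 45 min RT, wash, fluorescence of bound GTP.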

[4] = biological target: KRas G12D/Q61H double mutant (Homo sapiens (Human), UniProt P01116, G12D/Q61H); experiment: as above
Sequence of KRas G12D/Q61H double mutant (P01116-2 other isoform, or with tags, fused parts or gaps G12D/Q61H): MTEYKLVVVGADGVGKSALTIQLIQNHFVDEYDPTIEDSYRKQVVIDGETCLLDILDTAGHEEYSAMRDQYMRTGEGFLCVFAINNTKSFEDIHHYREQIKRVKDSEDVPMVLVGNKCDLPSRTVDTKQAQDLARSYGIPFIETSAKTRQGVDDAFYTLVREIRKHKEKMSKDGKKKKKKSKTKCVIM
In short: as §1

[5] = biological target: KRas G12C/Q61H double mutant (Homo sapiens (Human), UniProt P01116, G12C/Q61H); experiment: as above; details: 20 μM compound
Sequence of KRas G12C/Q61H double mutant (P01116-2 other isoform, or with tags, fused parts or gaps G12C/Q61H): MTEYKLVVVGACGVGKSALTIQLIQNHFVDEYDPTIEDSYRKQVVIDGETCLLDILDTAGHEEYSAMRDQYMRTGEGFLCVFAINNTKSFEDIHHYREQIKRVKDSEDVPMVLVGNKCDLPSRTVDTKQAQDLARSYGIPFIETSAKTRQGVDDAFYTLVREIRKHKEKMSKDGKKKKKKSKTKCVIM
In short: as §1

[6] = biological target: KRas wild type (Homo sapiens (Human), UniProt P01116); experiment: as above; details: 20 μM compound
Sequence of KRas wild type (P01116-2 other isoform, or with tags, fused parts or gaps): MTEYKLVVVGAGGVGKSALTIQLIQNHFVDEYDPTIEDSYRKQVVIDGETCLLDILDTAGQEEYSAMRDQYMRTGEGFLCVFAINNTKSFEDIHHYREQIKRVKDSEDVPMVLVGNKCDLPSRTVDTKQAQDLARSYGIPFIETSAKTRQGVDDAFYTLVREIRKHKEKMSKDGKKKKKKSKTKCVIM
In short: as §1

[7] = biological target: KRas G12C mutant (Homo sapiens (Human), UniProt P01116, G12C); experiment: as above; details: 20 μM compound
Sequence of KRas G12C mutant (P01116-2 other isoform, or with tags, fused parts or gaps G12C): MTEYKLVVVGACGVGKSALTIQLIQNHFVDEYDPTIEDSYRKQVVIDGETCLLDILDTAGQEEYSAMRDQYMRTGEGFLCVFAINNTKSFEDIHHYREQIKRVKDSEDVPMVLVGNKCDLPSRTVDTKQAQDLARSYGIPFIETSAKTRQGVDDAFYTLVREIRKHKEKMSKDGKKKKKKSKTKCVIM
In short: as §1

[8] = read-out: % Inhibition at 20 μM KRas G12D
[9] = read-out: % Inhibition at 20 μM KRas Q61H
[10] = 20 μM compound, read-out: % Inhibition at 20 μM KRas G12D Q61H
[11] = read-out: % Inhibition at 20 μM KRas G12C Q61H
[12] = read-out: % Inhibition at 20 μM KRas wild type
[13] = read-out: % Inhibition at 20 μM KRas G12C
[14] = KRas G12D, read-out: % Inhibition at 20 μM of K-Ras mutant and wild-type protein, KRas G12D
[15] = KRas Q61H, read-out: % Inhibition at 20 μM of K-Ras mutant and wild-type protein, KRas Q61H
[16] = 20 μM compound, KRas G12D/Q61H double mutant, read-out: % Inhibition at 20 μM of K-Ras mutant and wild-type protein, KRas G12D Q61H
[17] = KRas G12C/Q61H double mutant, read-out: % Inhibition at 20 μM of K-Ras mutant and wild-type protein, KRas G12C Q61H
[18] = KRas wild type, read-out: % Inhibition at 20 μM of K-Ras mutant and wild-type protein, KRas wild type
[19] = KRas G12C, read-out: % Inhibition at 20 μM of K-Ras mutant and wild-type protein, KRas G12C

| SMILES | inhibition at 20 µM [2, 8] [%] | inhibition at 20 µM [3, 9] [%] | inhibition at 20 µM [4, 10] [%] | inhibition at 20 µM [5, 11] [%] | inhibition at 20 µM [6, 12] [%] | inhibition at 20 µM [7, 13] [%] | inhibition at 20 µM [2, 14] [%] | inhibition at 20 µM [3, 15] [%] | inhibition at 20 µM [4, 16] [%] | inhibition at 20 µM [5, 17] [%] | inhibition at 20 µM [6, 18] [%] | inhibition at 20 µM [7, 19] [%] | also measured |
| --- | --- | --- | --- | --- | --- | --- | --- | --- | --- | --- | --- | --- | --- |
| COCCNc1nc(-c2ccccn2)nc2c1c(-c1ccccc1)nn2-c1ccccn1 [drawing 1840] | – | – | – | – | – | – | – | – | – | – | – | – | inhibition at 10 µM [1]: 76 to 100% |
| Cc1cnc(-c2ccccn2)nc1NC(=O)C1CCCc2cc(C#N)ccc21 (centres unmarked) [drawing 2827] | 25 to 50 | 51 to 75 | 51 to 75 | 51 to 75 | 51 to 75 | 25 to 50 | – | – | – | – | – | – | – |
| O=C(CCn1ccnc1)Nc1nc(-c2ccccn2)nc2sccc12 [drawing 2889] | 76 to 100 | 76 to 100 | 51 to 75 | 51 to 75 | 51 to 75 | 25 to 50 | – | – | – | – | – | – | – |
| COc1cnc(-c2cn(C)cn2)nc1O [drawing 3512] | – | – | – | – | – | – | – | – | – | – | – | – | % Inhibition at 20 μM of K-Ras mutant and wild-type protein, KRas G12D ([2]; KRas G12D): C (51-75% inhibition); % Inhibition at 20 μM of K-Ras mutant and wild-type protein, KRas Q61H ([3]; KRas Q61H): D (76-100% inhibition); % Inhibition at 20 μM of K-Ras mutant and wild-type protein, KRas G12D Q61H ([4]; 20 μM compound, KRas G12D/Q61H double mutant): C (51-75% inhibition); % Inhibition at 20 μM of K-Ras mutant and wild-type protein, KRas G12C Q61H ([5]; KRas G12C/Q61H double mutant): C (51-75% inhibition); % Inhibition at 20 μM of K-Ras mutant and wild-type protein, KRas wild type ([6]; KRas wild type): B (25-50% inhibition); % Inhibition at 20 μM of K-Ras mutant and wild-type protein, KRas G12C ([7]; KRas G12C): C (51-75% inhibition) |
| Cc1sc2c(O)nc(-c3ccccn3)nc2c1-c1ccccc1 [drawing 2905] | 51 to 75 | 25 to 50 | 51 to 75 | 25 to 50 | 1 to 25 | 25 to 50 | – | – | – | – | – | – | – |
| Cc1cnc(-c2ccccn2)nc1NC(=O)Cc1ccc2cnccc2c1 [drawing 2856] | 51 to 75 | 51 to 75 | 51 to 75 | 51 to 75 | 51 to 75 | 25 to 50 | – | – | – | – | – | – | – |
| COCCNc1nc(-c2cn(C)cn2)nc2sc(-c3ccncc3)c(-c3ccccc3)c12 [drawing 3530] | – | – | – | – | – | – | 51 to 75 | 76 to 100 | 76 to 100 | 51 to 75 | 51 to 75 | 51 to 75 | – |
| Oc1nc(-c2ccccn2)nc2c(-c3ccccc3Cl)csc12 [drawing 2695] | 25 to 50 | 51 to 75 | 51 to 75 | 51 to 75 | 1 to 25 | 25 to 50 | – | – | – | – | – | – | – |
| CN(C)Cc1ccc(F)c(-c2csc3c(O)nc(-c4ccccn4)nc23)c1 [drawing 2901] | 51 to 75 | 51 to 75 | 25 to 50 | 51 to 75 | 51 to 75 | 25 to 50 | – | – | – | – | – | – | IC50 ([4]; serial dilution, read-out: KRas G12D Q61H (classes E-H, IC50)): 11 to 30 µM |
| O=C(CCc1cncnc1)Nc1nc(-c2ccccn2)nc2sccc12 [drawing 2891] | 51 to 75 | 51 to 75 | 51 to 75 | 76 to 100 | 51 to 75 | 25 to 50 | – | – | – | – | – | – | – |
| COc1cnc(-c2nccn2C)nc1O [drawing 3513] | – | – | – | – | – | – | 76 to 100 | 76 to 100 | 76 to 100 | 76 to 100 | 51 to 75 | 51 to 75 | – |

Further lines, with some results ahead:

| inhibition at 20 µM [2, 8] [%] | inhibition at 20 µM [3, 9] [%] | inhibition at 20 µM [4, 10] [%] | inhibition at 20 µM [5, 11] [%] | inhibition at 20 µM [6, 12] [%] | inhibition at 20 µM [7, 13] [%] | inhibition at 20 µM [2, 14] [%] | inhibition at 20 µM [3, 15] [%] | inhibition at 20 µM [4, 16] [%] | inhibition at 20 µM [5, 17] [%] | inhibition at 20 µM [6, 18] [%] | inhibition at 20 µM [7, 19] [%] | SMILES | also measured |
| --- | --- | --- | --- | --- | --- | --- | --- | --- | --- | --- | --- | --- | --- |
| 51 to 75 | 51 to 75 | 51 to 75 | 51 to 75 | 51 to 75 | 25 to 50 | – | – | – | – | – | – | Oc1nc(-c2ccccn2)nc2c(-c3ccc4c(c3)OCO4)csc12 [drawing 2879] | – |
| 25 to 50 | 25 to 50 | 25 to 50 | 1 to 25 | 1 to 25 | 25 to 50 | – | – | – | – | – | – | Oc1nc(-c2ccccn2)nc2c(-c3cc(Cl)cc(Cl)c3)csc12 [drawing 2848] | – |
| 51 to 75 | 51 to 75 | 51 to 75 | 51 to 75 | 25 to 50 | 1 to 25 | – | – | – | – | – | – | Cc1cc2nc(-c3ccccn3)nc(N)c2s1 [drawing 2836] | – |
| 51 to 75 | 51 to 75 | 51 to 75 | 51 to 75 | 51 to 75 | 51 to 75 | – | – | – | – | – | – | O=C(c1csc2c(O)nc(-c3ccccn3)nc12)N1CCC(c2ccncc2)C1 (centres unmarked) [drawing 2839] | – |
| – | – | – | – | – | – | 1 to 25 | 76 to 100 | 51 to 75 | 51 to 75 | 1 to 25 | 25 to 50 | COc1nc(-c2ccccn2)nc2c(C3CCC3)csc12 [drawing 3480] | – |
| 51 to 75 | 51 to 75 | 25 to 50 | 25 to 50 | 1 to 25 | 25 to 50 | – | – | – | – | – | – | Oc1nc(-c2ccccn2)nc2c(-c3cc(F)ccc3OC(F)F)csc12 [drawing 2860] | – |
| – | – | – | – | – | – | 51 to 75 | 25 to 50 | 51 to 75 | 25 to 50 | 51 to 75 | 25 to 50 | Oc1nc(-c2ccccn2)nc2cc(-c3ccncc3)sc12 [drawing 3561] | – |
| 51 to 75 | 25 to 50 | 25 to 50 | 25 to 50 | 25 to 50 | 25 to 50 | – | – | – | – | – | – | COc1ccccc1-c1csc2c(O)nc(-c3ccccn3)nc12 [drawing 2870] | – |
| 76 to 100 | 76 to 100 | 25 to 50 | 76 to 100 | 25 to 50 | 25 to 50 | – | – | – | – | – | – | COc1cccc(CN2CCN(C(=O)c3csc4c(O)nc(-c5ccccn5)nc34)CC2)c1 [drawing 2763] | – |
| 51 to 75 | 51 to 75 | 51 to 75 | 51 to 75 | 51 to 75 | 25 to 50 | – | – | – | – | – | – | O=S1(=O)CCN(Cc2cccc(-c3csc4c(O)nc(-c5ccccn5)nc34)c2)CC1 [drawing 2864] | – |
| – | – | – | – | – | – | 76 to 100 | 51 to 75 | 51 to 75 | 76 to 100 | 25 to 50 | 25 to 50 | COc1c(O)nc(-c2ccccn2)nc1Oc1cccc(C(F)(F)F)c1 [drawing 3557] | – |
| 76 to 100 | 76 to 100 | 76 to 100 | 76 to 100 | 51 to 75 | 51 to 75 | – | – | – | – | – | – | O=C(c1csc2c(O)nc(-c3ccccn3)nc12)N1CCC(c2cccc(O)c2)C1 (centres unmarked) [drawing 2840] | – |
| – | – | – | – | – | – | 51 to 75 | 51 to 75 | 51 to 75 | 51 to 75 | 25 to 50 | 51 to 75 | Oc1nc(-c2ccccn2)nc2c1c(-c1ccccc1)nn2-c1ccccn1 [drawing 3539] | – |
| – | – | – | – | – | – | 51 to 75 | 51 to 75 | 51 to 75 | 25 to 50 | 1 to 25 | 25 to 50 | Cc1sc2c(O)nc(-c3ccccn3)nc2c1-c1ccncc1 [drawing 3497] | – |
| – | – | – | – | – | – | 51 to 75 | 51 to 75 | 51 to 75 | 51 to 75 | 25 to 50 | 25 to 50 | Cc1nn(C(C)C)cc1-c1csc2c(O)nc(-c3ccccn3)nc12 [drawing 3506] | – |
